The text below walks through data of patent publication US7547804B2, “Compounds, compositions, and methods employing same” (Myriad Genetics, Inc., priority 2002, dated 2009).

The EC50 is the concentration at which the effect is half-maximal.

Each structure is given as a SMILES string.

One test concerns LNCaP cell lines. Description: WST-1 Cell Proliferation and Viability Assay. It is filed as cell-based. Particulars: Homo sapiens; LNCaP cells, compound incubation 18-72 hours. On the procedure:
WST-1 Cell Proliferation and Viability Assay
Cell proliferation and cell viability was assessed using the tetrazolium salt WST-1 (Roche Applied Science, Indianapolis Ind.). The assay is based on the cleavage of WST-1 (light red) by mitochondrial dehydrogenase causing the formation of formazan (dark red), which can be measured on an optical density (O.D.) reader. LNCaP cell lines were plated in 96 well tissue culture plates (Corning Costar, N.Y.) at a density of 5000 cells/well in 150 μl complete media phenol-red free (RPMI-1640 [Invitrogen, Carlsbad Calif.] and 10% fetal calf serum). This plate is termed the assay plate. After the cells are plated, they are then incubated overnight at 37 degrees Celsius in a humidified chamber containing 5% CO2 (incubator).
Compounds are added to the assay plate in 50 μl of complete media and 0.4% DMSO (v:v) making the final DMSO concentration 0.1%. The assay plate is then returned to the incubator for 18-72 hours. WST-1 reagent is then added (20 μl/well) and the plate is placed on an ELISA plate shaker for 30 minutes at room temperature. Plates are then transferred back to the incubator for an additional 3 hours. Plates are then read on a 96 well plate O.D. reader at A490-A650.
Consider `CC(=O)Nc1cccc(C(=O)Nc2cccc(OCCc3ccccc3)c2)c1O` [Compound 2], for which the half-maximal effective concentration (EC50) stood at 23 µM.

With `O=CNc1cccc(C(=O)Nc2cccc(OCCc3ccccc3)c2)c1O` [Compound 5], the response was half-maximal at 5 µM (EC50).

The compound `CCOc1cc(CNc2cccc(NC(=O)c3cc(Cl)ccc3O)c2)ccc1OCc1ccccc1` [Compound 10] displayed a concentration for a half-maximal effect (EC50) of 14 µM.

In turn, `O=C(Nc1cccc(NCc2ccc3c(c2)OCO3)c1)c1cc(Cl)ccc1O` [Compound 11] came in with an EC50 of 40 µM.

Compound `COc1ccc(NC(=O)c2cc(Cl)ccc2O)cc1OCCc1ccccc1` [Compound 12] yielded an EC50 of 13 µM.

As for `CC(C)Cc1ccc(CNc2cccc(NC(=O)c3cc(Cl)ccc3O)c2)cc1` [Compound 13], the concentration for a half-maximal effect (EC50) amounted to 18 µM.

Compound `CC(C)c1ccc(CNc2cccc(NC(=O)c3cc(Cl)ccc3O)c2)cc1` [Compound 14] registered an EC50 of 18 µM.

For `O=C(Nc1cccc(OCc2ccccc2)c1)c1cc(Cl)ccc1O` [Compound 15], the concentration for a half-maximal effect (EC50) came to 12 µM.

Regarding `COc1ccccc1CCCOc1cccc(NC(=O)c2cc(Cl)ccc2O)c1` [Compound 16], the 50% effective concentration (EC50) came to 8 µM.

In the case of `O=C(Nc1cccc(OC2CCCC[C@H]2c2ccccc2)c1)c1cc(Cl)ccc1O` (stereo partly drawn) [Compound 17], the EC50 came out at 2 µM.

Take `O=C(Nc1cccc(CCOc2ccccc2)c1)c1cc(Cl)ccc1O` [Compound 18]: the EC50 came to 10 µM.

In turn, `CC(COc1cccc(NC(=O)c2cc(Cl)ccc2O)c1)c1ccccc1` (stereo not drawn) [Compound 19] displayed a concentration giving a half-maximal response (EC50) of 7 µM.

In turn, `CCOc1cc(CNc2cccc(NC(=O)c3cc(Cl)ccc3O)c2)ccc1OC` [Compound 20] displayed an EC50 of 24 µM.

Regarding `O=C(c1ccccc1)c1cccc(NC(=O)c2cc(Cl)ccc2O)c1` [Compound 21], it took 9 µM to reach a half-maximal effect (EC50).

On to `O=C(Nc1cc(Cl)ccc1OCCc1ccccc1)c1cc(Cl)ccc1O` [Compound 22], for which the half-maximal effective concentration (EC50) was 2 µM.

`O=C(Nc1cccc([N+](=O)[O-])c1)c1cc(Cl)ccc1O` [Compound 23] had an EC50 of 4 µM.

`O=C(NCc1ccc(Oc2ccccc2)cc1)c1cc(Cl)ccc1O` [Compound 26] displayed a concentration for a half-maximal effect (EC50) of 24 µM.

With `O=C(Nc1cc(OCCc2ccccc2)ccc1Cl)c1cc(Cl)ccc1O` [Compound 27], a half-maximal response (EC50) required 4 µM.

In turn, `O=C(Nc1cccc(NCc2ccccc2)c1)c1cc(Cl)ccc1O` [Compound 28] came in with an EC50 of 31 µM.

For the compound `CCN(CC)CCOc1cccc(CNc2cccc(NC(=O)c3cc(Cl)ccc3O)c2)c1` [Compound 30], a half-maximal response (EC50) required 50 µM.

In the case of `O=C(Nc1cc(Cl)ccc1Oc1ccc(Cl)c2ccccc12)c1cc(Cl)ccc1O` [Compound 31], the EC50 is 2 µM.

Compound `COc1ccccc1CCOc1ccc(Cl)c(NC(=O)c2cc(Cl)ccc2O)c1` [Compound 32] showed an EC50 of 6 µM.

Compound `COc1cccc(CCOc2ccc(Cl)c(NC(=O)c3cc(Cl)ccc3O)c2)c1` [Compound 33] displayed an EC50 of 3 µM.

The compound `COc1ccc(CCOc2cccc(NC(=O)c3cc(Cl)ccc3O)c2)cc1OC` [Compound 34] had an EC50 of 10 µM.

On to `O=C(Nc1cccc(OCCc2cccc(F)c2)c1)c1cc(Cl)ccc1O` [Compound 35], for which the EC50 stood at 10 µM.

`O=C(Nc1cccc(CNc2ccccc2)c1)c1cc(Cl)ccc1O` [Compound 36]: the midpoint of the response, the EC50, lay at 21 µM.

With `COc1ccc(CCOc2ccc(Cl)c(NC(=O)c3cc(Cl)ccc3O)c2)cc1` [Compound 37], a half-maximal effect (EC50) was put at 3 µM.

Compound `CCC(COc1cccc(NC(=O)c2cc(Cl)ccc2O)c1)c1ccccc1` (stereo not drawn) [Compound 42] displayed a half-maximal effective concentration (EC50) of 3 µM.

Turning to `Cc1ccc(OCCc2ccccc2)cc1NC(=O)c1cc(Cl)ccc1O` [Compound 43], the midpoint of the response, the EC50, lay at 3 µM.

Compound `O=C(Nc1cccc(OCC2(c3ccccc3)CC2)c1)c1cc(Cl)ccc1O` [Compound 44] registered an EC50 of 5 µM.

For the compound `Cc1ccc(NC(=O)c2cc(Cl)ccc2O)cc1OCCc1ccccc1` [Compound 45], the EC50 came to 4 µM.

For `O=C(Nc1cccc(OCCC2CCCCC2)c1)c1cc(Cl)ccc1O` [Compound 46], the EC50 was determined as 5 µM.

As to `CN(C)c1ccc(CCOc2cccc(NC(=O)c3cc(Cl)ccc3O)c2)cc1` [Compound 47], the concentration giving a half-maximal response (EC50) came out at 4 µM.

`Cc1c(NC(=O)c2cc(Cl)ccc2O)cccc1OCCc1ccccc1` [Compound 48] had an EC50 of 7 µM.

As to `O=C(NCc1ccc(OCCc2ccccc2)cc1)c1cc(Cl)ccc1O` [Compound 53], the EC50 is 23 µM.

Compound `O=C(NCCc1ccc(Oc2ccccc2)cc1)c1cc(Cl)ccc1O` [Compound 54] displayed a half-maximal effective concentration (EC50) of 13 µM.

Turning to `Cc1ccccc1CCOc1cccc(NC(=O)c2cc(Cl)ccc2O)c1` [Compound 55], the concentration giving a half-maximal response (EC50) was found to be 15 µM.

Consider `O=C(Nc1cccc(C(F)(F)F)c1)c1cc(Cl)ccc1O` [Compound 56], for which the concentration giving a half-maximal response (EC50) is 1 µM.

Turning to `Cc1cccc(CCOc2cccc(NC(=O)c3cc(Cl)ccc3O)c2)c1` [Compound 57], the EC50 is 15 µM.

In the case of `O=C(Nc1ccccc1C(F)(F)F)c1cc(Cl)ccc1O` [Compound 58], the EC50 was 10 µM.

`Cc1ccc(CCOc2cccc(NC(=O)c3cc(Cl)ccc3O)c2)cc1` [Compound 59] yielded an EC50 of 10 µM.

In turn, `O=C(Nc1ccc(C(F)(F)F)cc1)c1cc(Cl)ccc1O` [Compound 61] had a 50% effective concentration (EC50) of 1 µM.

The compound `Cc1cc(C)c(CCOc2cccc(NC(=O)c3cc(Cl)ccc3O)c2)c(C)c1` [Compound 62] returned an EC50 of 4 µM.

Turning to `O=C(Nc1ccc(OCCc2ccccc2)cc1)c1cc(Cl)ccc1O` [Compound 63], a half-maximal effect (EC50) was put at 20 µM.

Consider `O=C(Nc1cccc(OCc2ccc(Cl)cc2)c1)c1cc(Cl)ccc1O` [Compound 65], for which the 50% effective concentration (EC50) turned out to be 17 µM.

`O=C(NCc1cccc(OCCc2ccccc2)c1)c1cc(Cl)ccc1O` [Compound 66] returned a concentration giving a half-maximal response (EC50) of 50 µM.

The compound `O=C(NCc1cccc(Oc2ccccc2)c1)c1cc(Cl)ccc1O` [Compound 67] displayed an EC50 of 50 µM.

For the compound `O=C(NCCc1ccc(OCc2ccccc2)c(OCc2ccccc2)c1)c1cc(Cl)ccc1O` [Compound 69], the half-maximal effective concentration (EC50) was 14 µM.

Compound `O=C(Nc1cccc(CNc2ccc(Cl)cc2)c1)c1cc(Cl)ccc1O` [Compound 74] came in with an EC50 of 9 µM.

`O=C(Nc1cc(Cl)ccc1OCCCc1ccccc1)c1cc(Cl)ccc1O` [Compound 75] gave an EC50 of 1 µM.

On to `Cc1ccccc1CCOc1ccc(Cl)cc1NC(=O)c1cc(Cl)ccc1O` [Compound 76], for which the 50% effective concentration (EC50) worked out at 1 µM.

The compound `Cc1cccc(CCOc2ccc(Cl)cc2NC(=O)c2cc(Cl)ccc2O)c1` [Compound 77] displayed an EC50 of 1 µM.

In the case of `Cc1ccc(CCOc2ccc(Cl)cc2NC(=O)c2cc(Cl)ccc2O)cc1` [Compound 78], the half-maximal effective concentration (EC50) was found to be 2 µM.

`COc1ccc(CCOc2ccc(Cl)cc2NC(=O)c2cc(Cl)ccc2O)cc1` [Compound 79] displayed a half-maximal effective concentration (EC50) of 2 µM.

`O=C(Nc1ccccc1OCCc1ccccc1)c1cc(Cl)ccc1O` [Compound 80] showed a half-maximal effective concentration (EC50) of 4 µM.

Regarding `Cc1cc(C)c(CCOc2ccc(Cl)cc2NC(=O)c2cc(Cl)ccc2O)c(C)c1` [Compound 81], the 50% effective concentration (EC50) came out at 1 µM.

`O=C(Nc1cc(Cl)ccc1OCCc1ccccc1C(F)(F)F)c1cc(Cl)ccc1O` [Compound 82] gave an EC50 of 0.7 µM.

For `O=C(Nc1cc(Cl)ccc1OCCc1cccc(C(F)(F)F)c1)c1cc(Cl)ccc1O` [Compound 83], the half-maximal effective concentration (EC50) was determined as 0.8 µM.

`Cc1ccccc1COc1cccc(NC(=O)c2cc(Cl)ccc2O)c1` [Compound 84] returned an EC50 of 14 µM.

On to `CC(C)c1ccc(COc2cccc(NC(=O)c3cc(Cl)ccc3O)c2)cc1` [Compound 85], for which the EC50 came to 6 µM.

As to `O=C(Nc1cc(Cl)ccc1OCCc1ccc(Cl)cc1)c1cc(Cl)ccc1O` [Compound 87], the response was half-maximal at 0.9 µM (EC50).

Regarding `O=C(NCCc1cccc(OCc2ccccc2)c1)c1cc(Cl)ccc1O` [Compound 90], the concentration giving a half-maximal response (EC50) is 18 µM.

Compound `O=C(Nc1cc(OCCc2ccccc2)c(Cl)cc1Cl)c1cc(Cl)ccc1O` [Compound 92] returned a half-maximal effective concentration (EC50) of 2 µM.

In turn, `O=C(Nc1ccc(Cl)cc1)c1cc(Cl)ccc1O` [Compound 93] registered an EC50 of 4 µM.

`O=C(Nc1cccc(Cl)c1)c1cc(Cl)ccc1O` [Compound 94] registered an EC50 of 3 µM.

As to `CC(Cc1ccccc1)Oc1cccc(NC(=O)c2cc(Cl)ccc2O)c1` (stereo not drawn) [Compound 95], the half-maximal effective concentration (EC50) was found to be 6 µM.

Regarding `O=C(Nc1cccc(OCCCc2ccccc2)c1)c1cc(Cl)ccc1O` [Compound 96], the midpoint of the response, the EC50, lay at 10 µM.

The compound `O=C(Nc1ccc(OC2CCCC[C@H]2c2ccccc2)cc1)c1cc(Cl)ccc1O` (stereo partly drawn) [Compound 97] yielded an EC50 of 3 µM.

The compound `O=C(Nc1cc(Cl)ccc1OC1CCCC[C@H]1c1ccccc1)c1cc(Cl)ccc1O` (stereo partly drawn) [Compound 98] registered an EC50 of 4 µM.

In turn, `O=C(Nc1cc(Cl)ccc1OCCc1ccc(C(F)(F)F)cc1)c1cc(Cl)ccc1O` [Compound 99] showed a 50% effective concentration (EC50) of 1 µM.

`CC(C)c1ccc(CCOc2ccc(Cl)cc2NC(=O)c2cc(Cl)ccc2O)cc1` [Compound 100]: the 50% effective concentration (EC50) was 1 µM.

The test is the same for the next values; noted with them: Homo sapiens; LNCaP cells; flagged "Estimated": based on actual data at different concentrations.
Take `CC(=O)Nc1cc(F)c(F)cc1C(=O)Nc1cccc(OCCc2ccccc2)c1` [Compound 7]: the half-maximal effective concentration (EC50) is 30 µM.

Regarding `O=C(c1ccccc1)c1ccc(NC(=O)c2cc(Cl)ccc2O)cc1` [Compound 25], the half-maximal effective concentration (EC50) is 20 µM.

Regarding `O=C(Nc1cccc(OCCc2ccccc2)c1)c1cc(Cl)ccc1O` [Compound 29], the concentration giving a half-maximal response (EC50) is 30 µM.

As for `O=C(Nc1cccc(OCc2ccc3c(c2)OCO3)c1)c1cc(Cl)ccc1O` [Compound 86], the concentration giving a half-maximal response (EC50) was 30 µM.
